Tests used:
[1] = target: KHK-C expressed in NRK-52E cells (Homo sapiens (Human), UniProt P50053); assay: KHK-C Cell-based Assay (EC50), NRK CTG, fructose-mediated ATP-depletion
human KHK-C = human KHK-C (Homo sapiens (Human), UniProt P50053); assay: KHK Biochemical Assay (IC50), ADP-Glo, KHK-C; conditions: average of at least two separate assays
Summary of the method: (§1)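 His-tagged enzyme expressed in BL21 (DE3), Ni-NTA purified. Compounds, serially diluted 1:3 in DMSO, pre-incubated 30 min with enzyme in 50 mM Hepes pH 7.4, 140 mM KCl, 5 mM MgCl2, 0.01% Triton-X, then ATP and fructose added; 4 h at room temperature. ADP formation read by ADP-Glo luminescence.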

human KHK-A = human KHK-A (Homo sapiens (Human), UniProt P50053); assay: KHK Biochemical Assay (IC50), ADP-Glo, KHK-A; conditions: average of at least two separate assays
Sequence of human KHK-A (P50053 other isoform, or with tags, fused parts or gaps): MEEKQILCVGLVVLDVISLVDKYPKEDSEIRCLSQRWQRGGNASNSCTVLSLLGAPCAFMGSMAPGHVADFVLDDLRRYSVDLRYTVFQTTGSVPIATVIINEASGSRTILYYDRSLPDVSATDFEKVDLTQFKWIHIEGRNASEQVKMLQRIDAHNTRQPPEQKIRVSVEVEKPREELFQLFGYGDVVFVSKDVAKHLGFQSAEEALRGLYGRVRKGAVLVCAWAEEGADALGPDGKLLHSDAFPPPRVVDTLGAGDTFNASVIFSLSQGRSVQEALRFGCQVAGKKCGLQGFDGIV
Summary of the method: as §1

Sequence of KHK-C expressed in NRK-52E cells (P50053 whole entry): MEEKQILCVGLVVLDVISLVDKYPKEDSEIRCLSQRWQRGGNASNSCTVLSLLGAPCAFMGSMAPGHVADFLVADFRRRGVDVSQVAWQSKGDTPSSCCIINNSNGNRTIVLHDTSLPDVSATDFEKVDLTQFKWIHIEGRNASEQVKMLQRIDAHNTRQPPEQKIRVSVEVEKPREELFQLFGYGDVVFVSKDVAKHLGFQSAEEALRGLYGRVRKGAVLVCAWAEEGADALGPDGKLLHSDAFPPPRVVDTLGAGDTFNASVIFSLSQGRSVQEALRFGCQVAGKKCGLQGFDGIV
Sequence of human KHK-C (P50053 whole entry): as above

C[C@H]1[C@H](O)CN1c1nc(-c2ccc3c(c2)CC[C@]32CCC(=O)N2)c2c(n1)C(F)(F)CC2 (single isomer, unassigned) [Example 638]
EC50 [1]: 6.1 nM
IC50 (human KHK-C): 0.3 nM
IC50 (human KHK-A): 8.5 nM

CC(O)c1cccc(-c2nc(N3CC[C@@H]3C)nc3c2CCC3)c1 (stereo partly drawn) [Example 276, 1-(3-(2-((S)-2-methylazetidin-1-yl)-6,7-dihydro-5H-cyclopenta[d]pyrimidin-4-yl)phenyl)ethan-1-ol]
EC50 [1]: 110 nM
IC50 (human KHK-C; ADP-Glo): 69.5 nM
IC50 (human KHK-A; ADP-Glo): 66.6 nM

C[C@H]1CCN1c1nc2c(c(-c3cccc(CN4CCOCC4)c3)n1)CCC2 [Example 349, 4-[[3-[2-[(2S)-2-methylazetidin-1-yl]-6,7-dihydro-5H-cyclopenta[d]pyrimidin-4-yl]phenyl]methyl]morpholine]
EC50 [1]: 305 nM
IC50 (human KHK-C; ADP-Glo): 90.6 nM
IC50 (human KHK-A; ADP-Glo): 79.3 nM

C[C@H]1[C@H](O)CN1c1nc2c(c(-c3ccc(CN)cc3)n1)CCC2 [Example 202, (2S,3R)-1-[4-[4-(aminomethyl)phenyl]-6,7-dihydro-5H-cyclopenta[d]pyrimidin-2-yl]-2-methyl-azetidin-3-ol]
EC50 [1]: 111 nM
IC50 (human KHK-C; ADP-Glo): 7.7 nM
IC50 (human KHK-A; ADP-Glo): 9.8 nM

C[C@H]1CCN1c1nc2c(c(-c3cccc(NS(=O)(=O)CC(=O)O)c3)n1)CCC2 [Example 81, (S)-2-(N-(3-(2-(2-methylazetidin-1-yl)-6,7-dihydro-5H-cyclopenta[d]pyrimidin-4-yl)phenyl)sulfamoyl)acetic acid]
EC50 [1]: > 5000 nM
IC50 (human KHK-C; ADP-Glo): 7.6 nM
IC50 (human KHK-A; ADP-Glo): 9.5 nM

C[C@H]1CCN1c1nc2c(c(-c3ccc4c(c3)C3C(C4)C3C(=O)O)n1)CCC2 (stereo partly drawn) [Example 428, 3-[2-[(2S)-2-methylazetidin-1-yl]-6,7-dihydro-5H-cyclopenta[d]pyrimidin-4-yl]-1,1a,6,6a-tetrahydrocyclopropa[a]indene-1-carboxylic acid]
EC50 [1]: 387 nM
IC50 (human KHK-C): 41.3 nM
IC50 (human KHK-A): 38.4 nM

C[C@H]1CCN1c1nc2c(c(-c3cccc(C(=O)NCC(N)=O)c3)n1)CCC2 [Example 216, N-(2-amino-2-oxo-ethyl)-3-[2-[(2S)-2-methylazetidin-1-yl]-6,7-dihydro-5H-cyclopenta[d]pyrimidin-4-yl]benzamide]
EC50 [1]: 390 nM
IC50 (human KHK-C; ADP-Glo): 38.4 nM
IC50 (human KHK-A; ADP-Glo): 37.8 nM

C[C@H]1CCN1c1nc2c(c(-c3cccc([C@H]4C[C@@H]4C(N)=O)c3)n1)CCC2 (stereo in doubt) [Example 456, trans-2-[3-[2-[(2S)-2-methylazetidin-1-yl]-6,7-dihydro-5H-cyclopenta[d]pyrimidin-4-yl]phenyl]cyclopropanecarboxamide]
EC50 [1]: 51.8 nM
IC50 (human KHK-C): 21.8 nM
IC50 (human KHK-A): 44.8 nM

C[C@]1(O)CCN(c2nc3c(c(-c4ccc(C(N)=O)cc4)n2)CCC3)C1 [Example 268, 4-[2-[(38)-3-hydroxy-3-methyl-pyrrolidin-1-yl]-6,7-dihydro-5H-cyclopenta[d]pyrimidin-4-yl]benzamide]
EC50 [1]: > 5000 nM
IC50 (human KHK-C; ADP-Glo): > 5000 nM
IC50 (human KHK-A; ADP-Glo): > 5000 nM

C[C@H]1CCN1c1nc2c(c(-c3ccc4c(c3)CN(C)C4=O)n1)CCC2 [Example 186, 2-methyl-5-[2-[(2S)-2-methylazetidin-1-yl]-6,7-dihydro-5H-cyclopenta[d]pyrimidin-4-yl]isoindolin-1-one]
EC50 [1]: 143 nM
IC50 (human KHK-C; ADP-Glo): 66.9 nM
IC50 (human KHK-A; ADP-Glo): 78.2 nM

C[C@H]1CCN1c1nc2c(c(-c3ccc(C(N)=O)c(Cl)c3)n1)CCC2 [Example 303, (S)-2-chloro-4-(2-(2-methylazetidin-1-yl)-6,7-dihydro-5H-cyclopenta[d]pyrimidin-4-yl)benzamide]
EC50 [1]: 91.5 nM
IC50 (human KHK-C; ADP-Glo): 49.7 nM
IC50 (human KHK-A; ADP-Glo): 29.7 nM

Cc1ccc(-c2nc(N3CC[C@@H]3C)nc3c2CCC3)cc1S(N)(=O)=O [Example 123, (S)-2-methyl-5-(2-(2-methylazetidin-1-yl)-6,7-dihydro-5H-cyclopenta[d]pyrimidin-4-yl)benzenesulfonamide]
EC50 [1]: 62.4 nM
IC50 (human KHK-C; ADP-Glo): 30.5 nM
IC50 (human KHK-A; ADP-Glo): 40.2 nM

C[C@H]1CCN1c1nc2c(c(-c3ccc4cn[nH]c4c3)n1)CCC2 [Example 44, (S)-6-(2-(2-methylazetidin-1-yl)-6,7-dihydro-5H-cyclopenta[d]pyrimidin-4-yl)-1H-indazole]
EC50 [1]: 329 nM
IC50 (human KHK-C; ADP-Glo): 259 nM
IC50 (human KHK-A; ADP-Glo): 286 nM

C[C@H]1CCN1c1nc2c(c(-c3ccc4c(c3)[C@]3(C[C@H]3C(=O)O)C(=O)N4)n1)CCC2 (racemic) [Example 408, rac-(1R,2R)-5′-(24(8)-2-methylazetidin-1-yl)-6,7-dihydro-5H-cyclopenta[d]pyrimidin-4-yl)-2′-oxospiro[cyclopropane-1,3′-indoline]-2-carboxylic acid]
EC50 [1]: > 5000 nM
IC50 (human KHK-C): 100 nM
IC50 (human KHK-A): 158 nM

CO[C@@H]1CN(c2nc3c(c(-c4ccc(C(N)=O)cc4)n2)CCC3)[C@H]1C [Example 235, 4-(2-((2S,3R)-3-methoxy-2-methylazetidin-1-yl)-6,7-dihydro-5H-cyclopenta[d]pyrimidin-4-yl)benzamide]
EC50 [1]: > 5000 nM
IC50 (human KHK-C; ADP-Glo): > 5000 nM
IC50 (human KHK-A; ADP-Glo): > 5000 nM

C[C@H]1[C@H](F)CN1c1nc2c(c(-c3ccc(CN)cc3)n1)CCC2 [Example 201, [4-[2-[(2S,3R)-3-fluoro-2-methyl-azetidin-1-yl]-6,7-dihydro-5H-cyclopenta[d]pyrimidin-4-yl]phenyl]methanamine]
EC50 [1]: 130 nM
IC50 (human KHK-C; ADP-Glo): 1.7 nM
IC50 (human KHK-A; ADP-Glo): 2.9 nM

C[C@H]1CCN1c1nc(-c2cccc(C(N)=O)c2)c2c(cnn2C)n1 [Example 271, (S)-3-(1-methyl-5-(2-methylazetidin-1-yl)-1H-pyrazolo[4,3-d]pyrimidin-7-yl)benzamide]
EC50 [1]: 2320 nM
IC50 (human KHK-C; ADP-Glo): 532 nM
IC50 (human KHK-A; ADP-Glo): 518 nM

C[C@H]1CCN1c1nc2c(c(-c3ccc(C(C)(C)O)s3)n1)CCC2 [Example 376, 2-[5-[2-[(2S)-2-methylazetidin-1-yl]-6,7-dihydro-5H-cyclopenta[d]pyrimidin-4-yl]-2-thienyl]propan-2-ol]
EC50 [1]: 37.3 nM
IC50 (human KHK-C; ADP-Glo): 27.9 nM
IC50 (human KHK-A; ADP-Glo): 52.3 nM

C[C@@H]1N(c2nc(-c3ccc4c(c3)OC[C@@]43COC(=O)N3)c3c(n2)C(F)(F)CC3)C[C@@]1(C)O [Example 829, (3R)-6-[7,7-difluoro-2-[(2S,3R)-3-hydroxy-2,3-dimethyl-azetidin-1-yl]-5,6-dihydrocyclopenta[d]pyrimidin-4-yl]spiro[2H-benzofuran-3,4′-oxazolidine]-2′-one]
EC50 [1]: 10.4 nM
IC50 (human KHK-C; ADP-Glo): 1 nM
IC50 (human KHK-A; ADP-Glo): 25.8 nM

C[C@H]1CCN1c1nc2c(c(-c3ccc4c(c3)C[C@@H]3[C@@H](C(N)=O)[C@H]43)n1)CCC2 (relative stereo) [Example 137, (1R,1aR*,6aS*)-4-(2-((S)-2-methylazetidin-1-yl)-6,7-dihydro-5H-cyclopenta[d]pyrimidin-4-yl)-1,1a,6,6a-tetrahydrocyclopropa[a]indene-1-carboxamide]
EC50 [1]: 100 nM
IC50 (human KHK-C; ADP-Glo): 90.3 nM
IC50 (human KHK-A; ADP-Glo): 216 nM

C[C@H]1CCN1c1nc(-c2ccc(C(N)=O)cc2)c2[nH]ncc2n1 [Example 396, (S)-4-(5-(2-methylazetidin-1-yl)-1H-pyrazolo[4,3-d]pyrimidin-7-yl)benzamide]
EC50 [1]: 2510 nM
IC50 (human KHK-C): 80 nM
IC50 (human KHK-A): 130 nM

C[C@H]1CCN1c1nc2c(c(-c3cccc(C4(C(=O)O)CC4)c3)n1)CCC2 [Example 253, 1-[3-[2-[(2S)-2-methylazetidin-1-yl]-6,7-dihydro-5H-cyclopenta[d]pyrimidin-4-yl]phenyl]cyclopropanecarboxylic acid]
EC50 [1]: 2770 nM
IC50 (human KHK-C; ADP-Glo): 239 nM
IC50 (human KHK-A; ADP-Glo): 204 nM

C[C@H]1CCN1c1nc2c(c(-c3cn4cnc(C(N)=O)c4s3)n1)CCC2 [Example 119, (S)-2-(2-(2-methylazetidin-1-yl)-6,7-dihydro-5H-cyclopenta[d]pyrimidin-4-yl)imidazo[5,1-b]thiazole-7-carboxamide]
EC50 [1]: 6.6 nM
IC50 (human KHK-C; ADP-Glo): 2.4 nM
IC50 (human KHK-A; ADP-Glo): 13.4 nM

C[C@H]1CCN1c1nc2c(c(-c3ccc4[nH]c(=O)n(C)c4c3)n1)CCC2 [Example 251, 3-methyl-5-[2-[(2S)-2-methylazetidin-1-yl]-6,7-dihydro-5H-cyclopenta[d]pyrimidin-4-yl]-1H-benzimidazol-2-one]
EC50 [1]: 243 nM
IC50 (human KHK-C; ADP-Glo): 135 nM
IC50 (human KHK-A; ADP-Glo): 126 nM

Cc1ccc(-c2nc(N3CC[C@@H]3C)nc3c2CCC3)cc1C(N)=O [Example 27, (S)-2-methyl-5-(2-(2-methylazetidin-1-yl)-6,7-dihydro-5H-cyclopenta[d]pyrimidin-4-yl)benzamide]
EC50 [1]: 229 nM
IC50 (human KHK-C; ADP-Glo): 59.7 nM
IC50 (human KHK-A; ADP-Glo): 58.9 nM

COc1ccc(-c2nc(N3C[C@@H](O)[C@@H]3C)nc3c2CCC3(F)F)cc1S(C)(=O)=O [Example 882, (2S,3R)-1-(7,7-difluoro-4-(4-methoxy-3-(methylsulfonyl)phenyl)-6,7-dihydro-5H-cyclopenta[d]pyrimidin-2-yl)-2-methylazetidin-3-ol]
EC50 [1]: 34.6 nM
IC50 (human KHK-C; ADP-Glo): 5.1 nM
IC50 (human KHK-A; ADP-Glo): 4.5 nM

C[C@H]1CCN1c1nc2c(c(-c3cc4ccccc4[nH]3)n1)CCC2 [Example 151, (S)-4-(1H-indol-2-yl)-2-(2-methylazetidin-1-yl)-6,7-dihydro-5H-cyclopenta[d]pyrimidine]
EC50 [1]: 1360 nM
IC50 (human KHK-C; ADP-Glo): 3890 nM
IC50 (human KHK-A; ADP-Glo): 4980 nM

C[C@H]1CCN1c1nc2c(c(-c3cc4cc(C(N)=O)ccc4[nH]3)n1)CCC2 [Example 152, (S)-2-(2-(2-methylazetidin-1-yl)-6,7-dihydro-5H-cyclopenta[d]pyrimidin-4-yl)-1H-indole-5-carboxamide]
EC50 [1]: 200 nM
IC50 (human KHK-C; ADP-Glo): 94 nM
IC50 (human KHK-A; ADP-Glo): 63.6 nM
